Test results published in article PMC7013932, “Disulfide-Linked Peptides for Blocking BTLA/HVEM Binding” (International Journal of Molecular Sciences, 2020).
Positions of bridges follow the written chain, without caps; N, C: chain ends. Residues, ends and D or L forms follow the SMILES beside them.

Tests used:
BTLA protein = biological target: T1, BTLA protein (Homo sapiens, UniProt Q7Z6A9); assay: SPR analysis of BTLA protein binding to immobilized HVEM (14–39) peptide
T1 construct: purchased Novoprotein C563
Method: To analyze the binding properties between BTLA and the HVEM (14–39) peptide, we performed the affinity measurements using SPR. Thus, the peptide extended by five glycine residues at the N-terminus and biotin was first immobilized on a streptavidin matrix-coated sensor chip. The BTLA protein was then injected at different concentrations (0, 1, 3, 5, 10, and 15 µM). […] Moreover, the SPR results reveal that the peptide binds approximately 8 times slower (k1 = 76400), and dissociates 36 times slower (k−1 = 0.00332) than does the HVEM protein (k1 = 620000 and k−1 = 0.12), which agrees with the theoretical results of simulations with crystal-based structure and NMR-based structure of the peptide (Table 1).
Figure 6 SPR analysis of the BTLA protein binding to the HVEM (14–39) peptide. Sensorgrams show the results of SPR analysis conducted on the binding of the indicated concentrations of BTLA protein (C = 0, 1, 3, 5, 10, and 15 μM) in HBS-EP buffer.
Recombinant human BTLA protein was purchased from Novoprotein (company product code: C563). Recombinant human BTLA-Fc, HVEM-Fc and anti-human BTLA (#7.1)-blocking mAb were a generous gift from Prof. D. Olive (Inserm U1068/CNRS U7258, Marseille, France). Anti-HVEM mAb was biotinylated according to the manufacturer’s instructions (Biotin Labeling Kit-NH2, Abnova, #KA0003).
Standard SPR analyses were performed using a Biacore T200 (GE Healthcare) instrument essentially as described in the manufacturer’s manual. BTLA protein binding was studied using the HVEM(14–39) peptide elongated by five glycine residues at the N-terminus and immobilized on a streptavidin matrix-coated Sensor Chip SA (GE Healthcare). The peptide was immobilized on the sensor surface to yield a final value of ~1100 RU. HBS-EP (150 mM NaCl, 10 mM HEPES pH 7.4, 3 mM EDTA, 0.05% Surfactant P20) was used as the running buffer. In all the experiments, the buffer flow was set to 30 µL/min, with all injections at a volume of 120 µL. The sensorchip surface was regenerated with 0.5 M NaCl and 10 mM glycine. The data obtained were analyzed using Biacore T200 Evaluation Software 3.1 (Biacore, GE Healthcare, USA). The results are presented as sensorgrams obtained after subtraction of the background response signal from control experiments with buffer injections.

[1] = system: peripheral blood mononuclear cells (PBMC); format: cell-based, human; settings: PBMC from 3 healthy donors; peptide 0.1 and 5 mg/ml; 6 and 24 h, 37 °C; trypan blue counting and DAPI flow cytometry
Method: (§1) Then, we measured the cell death by counting the cells using trypan blue and by flow cytometry using 4′,6-diamidino-2-phenylindole dihydrochloride (DAPI).
Blood samples were also collected from healthy volunteers through the local Swiss blood bank. Fresh peripheral blood mononuclear cells were purified by density gradient centrifugation (Isopaque-Ficoll) within 2 h after blood sampling. Cells were cryopreserved in RPMI medium 1640 supplemented with 40% FCS and 10% DMSO.
Then, 2 × 10^4 total PBMC per well (96-well plate) was cultured with or without the HVEM (14–39) peptide at 5 or 0.1 mg/mL in RPMI 1640 supplemented with 10% FCS, 1% penicillin-streptomycin, and 25 mM HEPES. After 6 and 24 h at 37 °C, cells were harvested counted with Trypan blue exclusion. Cells were then labeled with DAPI and analyzed by flow cytometry to determine the percentage of cell death. […]
medium at time points (from the bottom) = 0h, 2h, 3h, 6h and 24h (gradient 5-100%B in 60 […]
Figure S6. 293T cells expressing human BTLA were incubated with different concentrations (0.1, 1 and 5 mg/ml) of peptide HVEM(14-39) prior labeling with rhHVEM-Fc and AF647-conjugated anti-human IgG antibody.
Fig. S7. Cytotoxic assay. PBMC from 3 healthy donors were incubated with HVEM(14-39) peptide at 0, 0.1 and 5 mg/ml in culture medium for 6 and 24h. Cells were subsequently counted and labelled with a dead cell marker. […]

293T cells = assay: Toxicity on 293T cells (data not shown); format: cell-based, human; settings: 5 mg/mL
Source text: as §1

[2] = biological target: T2, BTLA/HVEM binding on 293T cells expressing human BTLA (Homo sapiens, UniProt Q7Z6A9); assay: BTLA/HVEM interaction cell line assay (HVEM-Fc binding to 293T cells expressing BTLA, flow cytometry); format: cell-based; settings: 293T cells expressing human BTLA preincubated with peptide 5 mg/mL, 1 h, 4 °C in PBS, then HVEM-Fc 8 μg/mL and AF647 anti-human IgG
T2 construct: Krummenacher, University of Pennsylvania; host or cells: 293T
Method: Figure 7 HVEM (14–39) peptide blocks BTLA/HVEM binding. 293T cells expressing human BTLA were incubated with peptides (5 mg/mL) prior to labeling with HVEM-Fc and AF647-conjugated anti-human IgG antibody. The blocking capacity of the HVEM (14–39) peptide was first compared to (A) a scrambled (Ac-[…]-NH2) peptide or (B) to variant peptides (Table S2).
Cells (293T) expressing BTLA (a generous gift from Dr. C. Krummenacher, University of Pennsylvania, USA) were maintained in culture with RPMI 10% FCS supplemented with 0.2 mg/mL hygromycin B. The cells (2 × 10^5) were incubated with HVEM-Fc (at 8 μg/mL in PBS containing 0.5% BSA) for 30 min at 4 °C. The cells were then washed and incubated with goat anti-human Fc conjugated with AF647 for 20 min at 4 °C in PBS containing 0.5% BSA (Jackson ImmunoResearch, #109–606–170). Inhibition of BTLA/HVEM binding by different peptides was assessed after preincubating the cells with different concentrations of the peptide (5, 1, and 0.1 mg/mL) for 1 h at 4 °C in PBS. After washing in PBS, the cells were stained for 20 min at 4 °C with an amine reactive dye (aqua live/dead stain kit, from Life Technologies, L34957) for dead cell exclusion. BTLA expression was controlled by anti-BTLA APC-conjugated antibody (Biolegend, #344510). Maximum inhibition of binding was determined by adding anti-BTLA7.1 antibody (2 μg/mL) for 1 h at 4 °C, before adding HVEM-Fc. Sample acquisition was performed on a Gallios Flow Cytometer (Beckman Coulter), and data were analyzed using FlowJo Software (TreeStar).

[3] = biological target: HVEM 1-103 (Homo sapiens) (UniProt Q92956); assay: SPR; settings: cited from earlier work
[4] = biological target: T3, Recombinant human BTLA-Fc (human, UniProt Q7Z6A9 31-157); assay: affinity chromatography on a microcolumn, fractions read by MALDI-TOF MS; BTLA-Fc immobilised in a microcolumn; peptide incubated, excess removed, complex dissociated; supernatant, last wash and elution analysed by mass spectrometry; settings: both partners purified
T3 construct: also called BTLA-Fc protein; immobilized BTLA protein; source: gift from Prof; D. Olive (recombinant)
T3 sequence (looked up): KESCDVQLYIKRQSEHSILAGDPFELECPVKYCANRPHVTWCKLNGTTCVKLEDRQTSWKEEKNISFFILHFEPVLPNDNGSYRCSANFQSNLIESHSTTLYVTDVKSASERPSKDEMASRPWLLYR

BTLA = settings: SPR, HVEM protein binding to BTLA; unit not given; cited from earlier work
Source text: Table 1 Rate constants: k1, k−1 and KD for the BTLA/HVEM and BTLA/HVEM (14–39) complexes determined using SPR and molecular dynamics simulation. […] SPR provided more accurate data. […] KD and affinity are inversely related, which means that the lower the KD value, the higher the affinity of the molecules. The HVEM (14–39) peptide binds and d ...

T2 sequence (Q7Z6A9 31-289): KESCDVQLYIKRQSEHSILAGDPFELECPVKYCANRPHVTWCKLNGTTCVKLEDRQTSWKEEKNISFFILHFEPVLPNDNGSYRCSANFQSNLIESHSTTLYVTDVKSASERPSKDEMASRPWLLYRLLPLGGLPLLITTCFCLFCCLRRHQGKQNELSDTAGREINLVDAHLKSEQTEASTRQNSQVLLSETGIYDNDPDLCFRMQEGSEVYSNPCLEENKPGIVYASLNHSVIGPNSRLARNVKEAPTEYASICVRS
Sequence of HVEM 1-103 (Homo sapiens) (Q92956 1-103): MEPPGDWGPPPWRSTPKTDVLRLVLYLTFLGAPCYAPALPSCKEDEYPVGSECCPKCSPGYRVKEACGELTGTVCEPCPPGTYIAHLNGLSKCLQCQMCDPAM

CC(=O)N[C@@H](CCC(=O)O)C(=O)N[C@@H](CO)C(=O)N[C@H]1CSSC[C@@H]2NC(=O)[C@H](C)NC(=O)[C@H](CCC(=O)O)NC(=O)[C@H](CCCCN)NC(=O)[C@H](C(C)C)NC(=O)[C@H](CCCNC(=N)N)NC(=O)[C@H](Cc3ccc(O)cc3)NC(=O)CNC(=O)[C@@H]3CCCN3C(=O)[C@H](CO)NC(=O)[C@H](CSSC[C@@H](C(=O)N[C@@H](CCC(=O)O)C(=O)N3CCC[C@H]3C(N)=O)NC(=O)[C@H](C(C)C)NC(=O)[C@H]([C@@H](C)O)NC(=O)CNC(=O)[C@H]([C@@H](C)O)NC(=O)[C@H](CC(C)C)NC(=O)[C@H](CCC(=O)O)NC(=O)CNC2=O)NC(=O)[C@H](CCCCN)NC(=O)[C@@H]2CCCN2C1=O [HVEM (14–39)] (Ac-ESCPKCSPGYRVKEACGELTGTVCEP-NH2; disulfide 3-16, 6-24)
kon (BTLA protein; SPR Biacore T200, peptide extended by five Gly and biotin at N-terminus on streptavidin chip SA (~1100 RU), BTLA 0-15 µM, HBS-EP pH 7.4, mean of four measurements, read-out: k1, association rate constant): 76400 M⁻¹ s⁻¹
Kd (BTLA protein; SPR, Table S1 measurement No 1): 13 nM
Kd (BTLA protein; SPR, Table S1 measurement No 2): 149 nM
Kd (BTLA protein; SPR, Table S1 measurement No 3): 217 nM
Kd (BTLA protein; SPR, Table S1 measurement No 4): 30.6 nM
Kd (BTLA protein; SPR, biotin-Gly5 peptide on streptavidin chip, BTLA 0-15 µM, HBS-EP pH 7.4, mean of four measurements): 102 nM
koff (BTLA protein; SPR, biotin-Gly5 peptide on streptavidin chip, BTLA 0-15 µM, HBS-EP pH 7.4, mean of four measurements, read-out: k−1, dissociation rate constant): 0.00332 s⁻¹
cell death of PBMC [1]: did not find any significant increase in cell death
toxicity on 293T cells (293T cells): did not observe any toxicity

CC(=O)N[C@@H](CCC(=O)O)C(=O)N[C@@H](CO)C(=O)N[C@H]1CSSC[C@@H](C(=O)N[C@@H](CO)C(=O)N2CCC[C@H]2C(=O)NCC(=O)N[C@@H](Cc2ccc(O)cc2)C(=O)N[C@@H](CCCNC(=N)N)C(=O)N[C@H](C(=O)N[C@@H](CCCCN)C(=O)N[C@@H](CCC(=O)O)C(=O)N[C@@H](C)C(=O)N[C@H]2CSSC[C@@H](C(=O)N[C@@H](CCC(=O)O)C(=O)N3CCC[C@H]3C(N)=O)NC(=O)[C@H](C(C)C)NC(=O)[C@H]([C@@H](C)O)NC(=O)CNC(=O)[C@H]([C@@H](C)O)NC(=O)[C@H](CC(C)C)NC(=O)[C@H](CCC(=O)O)NC(=O)CNC2=O)C(C)C)NC(=O)[C@H](CCCCN)NC(=O)[C@@H]2CCCN2C1=O [HVEM (14–39)^C16–C19, ^C29–C37] (Ac-ESCPKCSPGYRVKEACGELTGTVCEP-NH2; disulfide 3-6, 16-24)
blocking of HVEM-Fc binding to BTLA (geometric fluorescence intensity, GMFI) [2]: slight decrease in the blocking capacity

CC(=O)N[C@@H](CCC(=O)O)C(=O)N[C@@H](CO)C(=O)N[C@H]1CSSC[C@@H](C(=O)N[C@@H](CCC(=O)O)C(=O)N2CCC[C@H]2C(N)=O)NC(=O)[C@H](C(C)C)NC(=O)[C@H]([C@@H](C)O)NC(=O)CNC(=O)[C@H]([C@@H](C)O)NC(=O)[C@H](CC(C)C)NC(=O)[C@H](CCC(=O)O)NC(=O)CNC(=O)[C@@H]2CSSC[C@H](NC(=O)[C@H](CCCCN)NC(=O)[C@@H]3CCCN3C1=O)C(=O)N[C@@H](CO)C(=O)N1CCC[C@H]1C(=O)NCC(=O)N[C@@H](Cc1ccc(O)cc1)C(=O)N[C@@H](CCCNC(=N)N)C(=O)N[C@@H](C(C)C)C(=O)N[C@@H](CCCCN)C(=O)N[C@@H](CCC(=O)O)C(=O)N[C@@H](C)C(=O)N2 [HVEM (14–39)^C16–C37, ^C19–C29] (Ac-ESCPKCSPGYRVKEACGELTGTVCEP-NH2; disulfide 3-24, 6-16)
blocking of HVEM-Fc binding to BTLA (geometric fluorescence intensity, GMFI) [2]: slight decrease in the blocking capacity

Ac-ESSPKSSPGYRVKEASGELTGTVSEP-NH2 [HVEM (14–39)^C16,19,29,37S]
blocking of HVEM-Fc binding to BTLA (geometric fluorescence intensity, GMFI) [2]: blocking capacity was completely lost

BTLA (from UniProt Q7Z6A9)
Kd [3]: 250 nM

B1: HVEM (14–39) peptide (peptide, UniProt Q92956 52-77, looked up)
peptide: Ac-ESCPKCSPGYRVKEACGELTGTVCEP-NH2
modifications: disulfide 3-16, 6-24
notes: herpes virus entry mediator (HVEM), residues 14-39 of the numbering of the crystal structure PDB 2AW2, Cys15 replaced by serine; A C-terminal amide is likely (the scrambled peptide is printed as Ac-...-NH2); also called native HVEM (14–39) peptide; native peptide; source: synthetic peptide (solid-phase, Fmoc/tBu, RP-HPLC purified, disulfides formed stepwise)
binding result [4]: binds

B2: HVEM: herpes virus entry mediator, transmembrane glycoprotein of the TNFR superfamily, ligand of BTLA (protein)
chain: LPSCKEDEYPVGSECCPKCSPGYRVKEACGELTGTVCEPCPPGTYIAHLNGLSKCLQCQMCDPAMGLRASRNCSRTENAVCGCSPGHFCIVQDGDHCAACRAYATSSPGQRVQKGGTESQDTLCQNCPPGTFSPNGTLEECQHQTKCSWLVTKAGAGTSSSHWV
modifications: left off: Fc (detected with anti-human Fc/IgG), end not stated, kept
notes: herpes virus entry mediator, transmembrane glycoprotein of the TNFR superfamily, ligand of BTLA
k−1 (BTLA): 0.12
